pEC50: −log10 of the molar value. Read-outs that look alike come from different tables or passages of the source.
Columns and labels:
[1] = target: T1, human peroxidasin (Homo sapiens, UniProt Q92626); conditions: compared with reagent-grade PBS (FIG. 8D)
Protocol: (§1) (FIG. 8A) Matrix pellets isolated from KI-treated PFHR9 cell culture were extensively washed into 10 mM phosphate buffer (pH 7.4) supplemented with 100 mM KF to maintain ionic strength. Potassium salts of Cl— or Br— were added in indicated amounts. 1 hr reactions at 37° C. were initiated by addition of H2O2 to 1 mM and stopped by freezing at −20° C. […] Reagent KCl was commercially obtained and unaltered prior to analysis. 100 mM solutions were made with 18MΩ deionized water. (FIG. 8C) Coomassie blue stained gel of collagenase digested PFHR-9 matrix reaction assay. Reaction buffered contained 10 mM phosphate buffer (pH 7.4), 100 mM Br-Free or Commercially obtained reagent grade KCl, as well as 1 mM H2O2 and 200 μM PHG where appropriate. […] Reactions were run for 10 minutes at 37° C. with 10 μM H2O2 as the terminal oxidant. Dose-response curve run in the presence of 1× Br-Free PBS. Reactions were quenched with 0.2 mg/ml Catalase, 20 mM Methionine, and 1 mM PHG. EC50 value±95% C.I. from two independent experiments with each data point plotted and fit.
(§2) HEK293 cells stably transfected with the human peroxidasin coding sequence27 were grown to confluency, and the medium was changed to serum-free DMEM/F12 plus 5 μM hematin plus 5 mM sodium butyrate. […]

[2] = tested on: Drosophila melanogaster w1118; conditions: in vivo
Protocol: FIGS. 11A-C. […] WT Eggs from 3 day Br-depleted and Br-Added females were collected and transferred to new 35 mm culture dishes filled with 3 ml of vitamin and mineral spiked phytagel as the semi-solid support. 100 μL of Yeast paste±100 μM Br—(200 mg yeast/500 μL ddH2O) was added to the center of each dish. Larvae were transferred to fresh dishes and counted every 24-36 hours. WT flies were reared in the presence of 80 mM total Br-Free NaCl. For Br-Added conditions, both the phytagel and yeast paste were spiked with 100 μM NaBr to ensure constant and consistent exposure. Adults were fed identical food as part of the depletion regime. PxnF07229 homozygous larvae were separated from heterozygous larvae and collected 48 hours after hatching on a Br-Free vs Br-Added plates from parents fed a standard diet. After transfer to these fresh Br-experimental diet plates, they were transferred and counted similarly to the WT larvae under normal 20 mM NaCl conditions. The experimental cohorts [Br-Free (n=34), Br-Added (n=40), Br-Free PxnF07229 (n=14), and Br-Added PxnF07229 (n=19)] were followed until death or 2-days after eclosion of the last fly in the cohort. […] Scale bars in the insets represent 200 μm, and in the whole pictures 500 μm. The image of PxnF07229 larvae is from a Br-Added experimental diet. (FIG. 11C) Representative pictures of the corresponding gut dissections to FIG. 11B. Scale bars are 500 μm.
(FIG. 17A) Generational Br-depletion scheme (FIG. 17B). Generation 1 survival and time-to-development curves for w^1118 flies on the standard diet vs experimental diets. Embryos from mothers fed a standard diet were placed on the indicated diet, and progeny were scored every 24 hours. […] Data plotted as the group median±interquartile range. N=30 for each group. […] (FIG. 17C) Generation 2 developmental survival on experimental diets. n>40 for each cohort. Tested by Log-Rank test. (FIG. 17D) Percentage of eggs (mean+/−95% C.I.) completing embryogenesis from mothers reared on Br-free^DEP or Br-added^DEP diets for […]. In the Br-free^DEP experimental group, mothers were fed Br-free synthetic diet containing 80 mM total NaCl (Br-free^DEP) for 3 days prior to egg collection. The Br-added^DEP was treated in the same manner except that 100 μM NaBr was added to all food components of the Br-free^DEP synthetic diet. […] Analyzed by the Mann-Whitney U test. (FIG. 17E) Survival curve for w^1118 flies under Br-free^DEP or Br-added^DEP dietary conditions. […] Associated larval Br-content was measured by EINAA. Bonds/hexamer were calculated from the Western blot. […] BMs from 15 independent sections for each group were evaluated for thickness and the histograms plotted. […]

[3] = tested on: collagen IV; conditions: in vivo
Protocol: Data plotted as the group median±interquartile range. N=30 for each group. […] (FIG. 17F) Western blot of isolated NC1 domain from larvae treated as in (E), probed with an anti-Drosophila NC1 polyclonal antibody (Extended Experimental Methods). Associated larval Br-content was measured by EINAA. Bonds/hexamer were calculated from the Western blot.
In Br-free^DEP conditions, the inventors assessed the impact of Br-deficiency on crosslink formation in vivo. The inventors used vkg^454-GFP flies in which the single collagen IV α2 gene locus contains a GFP insertion near the 7S domain. vkg^454-GFP flies were grown on Br-free^DEP, Br-added^DEP and standard diets and biochemically assayed sulfilamine-bond content via immunoblot.

[4] = cited from earlier work
[5] = target: T1, human peroxidasin; assay: biochemical
Protocol: as §1, §2

[6] = tested on: PFHR-9 cells
Protocol: (FIG. 10A) The murine PFHR-9 cell-culture model of basement membranes was cultured for 7 days in the presence of either commercial DMEM+5% FBS or adapted Br-Free DMEM +5% FBS dialyzed against Br-Free HBSS. Media was changed every 24 hours with the addition of 50 μg/ml ascorbic acid and NaBr added where noted. The cell deposited matrix was harvested, collagenase digested, and subjected to SDS-PAGE. NC1 crosslinking content is graphed as the mean±95% C.I. (n=3) with a representative gel depicted.
Bromine was systematically eliminated from DMEM by making the media from individual components without chloride counter ions, and using Br-Free chloride as the only halide source.

T1 sequence (Q92626 27-1479): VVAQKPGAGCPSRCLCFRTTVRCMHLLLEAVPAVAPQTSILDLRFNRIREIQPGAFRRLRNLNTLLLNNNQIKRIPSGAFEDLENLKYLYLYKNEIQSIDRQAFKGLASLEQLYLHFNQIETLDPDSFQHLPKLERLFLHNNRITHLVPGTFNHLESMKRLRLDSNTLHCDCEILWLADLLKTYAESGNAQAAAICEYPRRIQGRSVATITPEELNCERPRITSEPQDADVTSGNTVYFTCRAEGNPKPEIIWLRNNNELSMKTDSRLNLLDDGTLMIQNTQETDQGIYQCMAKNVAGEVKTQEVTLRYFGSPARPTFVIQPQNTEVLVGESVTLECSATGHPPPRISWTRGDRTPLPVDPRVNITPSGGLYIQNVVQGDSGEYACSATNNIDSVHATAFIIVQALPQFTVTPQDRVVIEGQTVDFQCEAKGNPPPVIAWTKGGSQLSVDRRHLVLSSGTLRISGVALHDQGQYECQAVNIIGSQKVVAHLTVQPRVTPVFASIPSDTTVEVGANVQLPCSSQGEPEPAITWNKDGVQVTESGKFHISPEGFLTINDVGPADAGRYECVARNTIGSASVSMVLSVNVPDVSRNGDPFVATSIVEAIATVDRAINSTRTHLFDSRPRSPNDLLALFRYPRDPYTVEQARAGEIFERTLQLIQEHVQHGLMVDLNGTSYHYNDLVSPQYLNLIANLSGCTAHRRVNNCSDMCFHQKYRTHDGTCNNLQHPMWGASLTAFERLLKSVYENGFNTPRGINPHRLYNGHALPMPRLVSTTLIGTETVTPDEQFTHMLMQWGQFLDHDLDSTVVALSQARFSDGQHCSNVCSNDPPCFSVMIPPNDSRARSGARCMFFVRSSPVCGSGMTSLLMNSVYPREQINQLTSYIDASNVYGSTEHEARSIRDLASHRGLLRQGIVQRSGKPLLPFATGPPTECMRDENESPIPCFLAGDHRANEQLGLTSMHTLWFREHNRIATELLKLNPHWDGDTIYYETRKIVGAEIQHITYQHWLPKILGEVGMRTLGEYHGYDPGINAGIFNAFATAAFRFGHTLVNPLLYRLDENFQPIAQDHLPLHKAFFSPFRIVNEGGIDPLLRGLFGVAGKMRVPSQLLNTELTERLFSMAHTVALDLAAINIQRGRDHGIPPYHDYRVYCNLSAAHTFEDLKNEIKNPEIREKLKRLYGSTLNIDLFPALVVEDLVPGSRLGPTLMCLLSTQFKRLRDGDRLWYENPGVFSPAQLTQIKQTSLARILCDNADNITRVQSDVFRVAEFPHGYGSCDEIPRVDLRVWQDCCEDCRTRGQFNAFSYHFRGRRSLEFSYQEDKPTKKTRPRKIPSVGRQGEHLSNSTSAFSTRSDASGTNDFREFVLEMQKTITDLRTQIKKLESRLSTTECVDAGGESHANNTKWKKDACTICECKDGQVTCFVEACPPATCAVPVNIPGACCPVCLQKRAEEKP

Br [bromide]
S═N bond formation on Br addition to Br-Free PBS [1]: recued the degree of S═N bond formation observed in reagent-grade PBS
Generation 2 larval survival [2]: rescued
developmental progression of PxnF07229 larvae [2]: unable to promote developmental progression
median time to eclosion [2]: 10 days
median time to pupariation [2]: 6 days
sulfilimine-bond content in larvae [3]: rescued
bromide level at which Bromism occurs ([4]; in vivo): > 12 mmol/L
half-life in the human body ([4]; in vivo): 12 days
serum bromide level at which toxicity (bromism) occurs [4]: ~12 mM
serum bromide level at which toxicity (bromism) occurs ([4]; listed as Br^−): > 12 mM
pEC50 [5]: 5.57
S═N crosslinking in the collagen IV matrix [6]: rescued physiologic levels of crosslinking
cell proliferation, viability, collagen IV synthesis [6]: no observable difference in cell proliferation, viability, or collagen IV synthesis

Reference: patent publication US10183039B2, “Methods for the production of collagen IV” (Vanderbilt University, priority 2013, dated 2019)
